Measured values reported in PubChem BioAssay AID256 (DTP/NCI, 2004).
“And” between values parts separate entries of the source, which are not always exact repeats. Equal entries are not always repeated. Toxic doses and inconclusive results are not listed. Rule for the calls: active = survival T/C of 150% or more; inactive = T/C below 125% in these data.

Tested on: CD2F1 mice, L1210 leukemia ip, survival T/C
Experiment: NCI In Vivo Anticancer Drug Screen. Data for tumor model L1210 Leukemia (intraperitoneal) in CD2F1 (CDF1) mice
Settings: higher = longer survival
How it was run: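 Tumor-bearing mice (transplanted tumor) were split into treated and vehicle control groups, and the measured endpoint of each treated group was divided by that of its vehicle controls.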

[1] = endpoint: mean survival time, dose: 100.0 mg/kg/injection, schedule: Q04DX002 (ip), vehicle: saline with Tween-80
[2] = endpoint: mean survival time, dose: 200.0 mg/kg/injection, schedule: Q04DX002 (ip), vehicle: saline with Tween-80
[3] = endpoint: mean survival time, dose: 400.0 mg/kg/injection, schedule: Q04DX002 (ip), vehicle: saline with Tween-80
[4] = endpoint: mean survival time, dose: 100.0 mg/kg/injection, schedule: Q04DX003 (ip), vehicle: saline
[5] = endpoint: mean survival time, dose: 200.0 mg/kg/injection, schedule: Q04DX003 (ip), vehicle: saline
[6] = endpoint: mean survival time, dose: 400.0 mg/kg/injection, schedule: Q04DX003 (ip), vehicle: saline
[7] = endpoint: mean survival time, dose: 100.0 mg/kg/injection, schedule: Q01DX009 (ip), vehicle: saline with Tween-80
[8] = endpoint: mean survival time, dose: 200.0 mg/kg/injection, schedule: Q01DX009 (ip), vehicle: saline with Tween-80
[9] = endpoint: mean survival time, dose: 100.0 mg/kg/injection, schedule: Q04DX003 (ip), vehicle: saline with Tween-80
[10] = endpoint: mean survival time, dose: 200.0 mg/kg/injection, schedule: Q04DX003 (ip), vehicle: saline with Tween-80
[11] = endpoint: mean survival time, dose: 400.0 mg/kg/injection, schedule: Q04DX003 (ip), vehicle: saline with Tween-80

Measured: T/C

O=c1[nH]c(=O)n(C2CC(O)C(CO)O2)cc1/C=C/c1ccccc1 (centres undefined)
inactive: endpoint: mean survival time, dose: 6.25 mg/kg/injection, schedule: Q01DX005 (ip), vehicle: distilled water + Tween-80 97 % of control | endpoint: mean survival time, dose: 12.5 mg/kg/injection, schedule: Q01DX005 (ip), vehicle: distilled water + Tween-80 103 % of control | endpoint: mean survival time, dose: 25.0 mg/kg/injection, schedule: Q01DX005 (ip), vehicle: distilled water + Tween-80 95 % of control | endpoint: mean survival time, dose: 50.0 mg/kg/injection, schedule: Q01DX005 (ip), vehicle: distilled water + Tween-80 95 % of control | endpoint: mean survival time, dose: 100.0 mg/kg/injection, schedule: Q01DX005 (ip), vehicle: distilled water + Tween-80 96 % of control

COc1ccc2c3c(ccc2c1)C1=NCCC1(C)CC3 (centres undefined)
inactive: endpoint: mean survival time, dose: 100.0 mg/kg/injection, schedule: Q01DX001 (sc), vehicle: Klucel (hydroxypropylcellulose) (HPC) 101 % of control | endpoint: mean survival time, dose: 100.0 mg/kg/injection, schedule: Q04DX003 (sc), vehicle: steriod suspending solution 105 % of control | endpoint: mean survival time, dose: 200.0 mg/kg/injection, schedule: Q01DX001 (sc), vehicle: Klucel (hydroxypropylcellulose) (HPC) 101 % of control | endpoint: mean survival time, dose: 200.0 mg/kg/injection, schedule: Q04DX003 (sc), vehicle: steriod suspending solution 102 % of control | endpoint: mean survival time, dose: 400.0 mg/kg/injection, schedule: Q01DX001 (sc), vehicle: Klucel (hydroxypropylcellulose) (HPC) 93 % of control | endpoint: mean survival time, dose: 400.0 mg/kg/injection, schedule: Q04DX003 (sc), vehicle: steriod suspending solution 108 % of control

O=C(O)c1cc([N+](=O)[O-])cc([N+](=O)[O-])c1 (tested in a mixture with another compound)
inactive: [1] 105 % of control and 114 % of control | [2] 101 % of control and 105 % of control | [3] 94 % of control

COc1cc(C(Cl)C2OC(CO)C(O)C2O)nc(C)n1 (centres undefined)
inactive: endpoint: median survival time, dose: 18.38 mg/kg/injection, schedule: Q01DX005 (ip), vehicle: saline 110 % of control | endpoint: median survival time, dose: 26.0 mg/kg/injection, schedule: Q01DX005 (ip), vehicle: saline 103 % of control | endpoint: median survival time, dose: 36.75 mg/kg/injection, schedule: Q01DX005 (ip), vehicle: saline 97 % of control | endpoint: median survival time, dose: 52.0 mg/kg/injection, schedule: Q01DX005 (ip), vehicle: saline 102 % of control | endpoint: median survival time, dose: 73.5 mg/kg/injection, schedule: Q01DX005 (ip), vehicle: saline 100 % of control | endpoint: median survival time, dose: 104.0 mg/kg/injection, schedule: Q01DX005 (ip), vehicle: saline 107 % of control | endpoint: median survival time, dose: 147.0 mg/kg/injection, schedule: Q01DX005 (ip), vehicle: saline 103 % of control | endpoint: median survival time, dose: 208.0 mg/kg/injection, schedule: Q01DX005 (ip), vehicle: saline 101 % of control

O=C1c2ccccc2C(=O)c2c(O)c(S(=O)(=O)O)cc(O)c21
inactive: [4] 93 % of control | [5] 96 % of control

O=C(Nc1ccc(Cl)c(Cl)c1)OCC#CCOC(=O)Nc1ccc(Cl)c(Cl)c1
inactive: [4] 95 % of control | [5] 95 % of control | [6] 91 % of control

CCC(O)C(C)[N+](=O)[O-] (centres undefined)
inactive: endpoint: mean survival time, dose: 50.0 mg/kg/injection, schedule: Q01DX009 (ip), vehicle: saline with Tween-80 95 % of control | [7] 102 % of control | [8] 95 % of control

C=C(Br)CNC(=O)NCC
inactive: endpoint: mean survival time, dose: 25.0 mg/kg/injection, schedule: Q04DX003 (ip), vehicle: saline with Tween-80 94 % of control | endpoint: mean survival time, dose: 50.0 mg/kg/injection, schedule: Q04DX003 (ip), vehicle: saline with Tween-80 105 % of control | [9] 100 % of control

[Cl][Pt+2][Cl].[NH-]c1ccc(F)c(Cl)c1.[NH-]c1ccc(F)c(Cl)c1
inactive: endpoint: mean survival time, dose: 3.13 mg/kg/injection, schedule: Q04DX003 (ip), vehicle: distilled water + Tween-80 108 % of control | endpoint: mean survival time, dose: 6.25 mg/kg/injection, schedule: Q04DX003 (ip), vehicle: distilled water + Tween-80 103 % of control | endpoint: mean survival time, dose: 12.5 mg/kg/injection, schedule: Q04DX003 (ip), vehicle: distilled water + Tween-80 110 % of control | endpoint: mean survival time, dose: 25.0 mg/kg/injection, schedule: Q04DX003 (ip), vehicle: distilled water + Tween-80 110 % of control | endpoint: mean survival time, dose: 50.0 mg/kg/injection, schedule: Q04DX003 (ip), vehicle: distilled water + Tween-80 110 % of control

CNc1nc(-c2ccncc2)nc(N(C)C)n1
inactive: [1] 96 % of control | [2] 88 % of control

COc1ccccc1NC(=O)Oc1ccc(Cl)cc1C
inactive: [1] 103 % of control | [2] 100 % of control | [3] 95 % of control

CN(Cc1ccc2nc(N)[nH]c(=O)c2n1)c1ccc(C(=O)NC(CCC(=O)O)C(=O)O)cc1 (centres undefined)
inactive: endpoint: mean survival time, dose: 0.5 mg/kg/injection, schedule: Q01DX005 (ip), vehicle: sodium bicarbonate 98 % of control and 101 % of control | endpoint: mean survival time, dose: 1.0 mg/kg/injection, schedule: Q01DX005 (ip), vehicle: sodium bicarbonate 101 % of control and 104 % of control | endpoint: mean survival time, dose: 2.0 mg/kg/injection, schedule: Q01DX005 (ip), vehicle: sodium bicarbonate 101 % of control and 102 % of control | endpoint: mean survival time, dose: 4.0 mg/kg/injection, schedule: Q01DX005 (ip), vehicle: sodium bicarbonate 98 % of control and 102 % of control | endpoint: mean survival time, dose: 8.0 mg/kg/injection, schedule: Q01DX005 (ip), vehicle: sodium bicarbonate 104 % of control and 107 % of control | endpoint: mean survival time, dose: 16.0 mg/kg/injection, schedule: Q01DX005 (ip), vehicle: sodium bicarbonate 102 % of control and 107 % of control

c1ccc(Sc2ccc3ccccc3c2)cc1
inactive: [9] 98 % of control | [10] 101 % of control | [11] 91 % of control

NC(=O)NC1CCCC1
inactive: [7] 107 % of control | [8] 107 % of control | endpoint: mean survival time, dose: 400.0 mg/kg/injection, schedule: Q01DX009 (ip), vehicle: saline with Tween-80 107 % of control

COC(=O)c1ncn(C2OC(CO)C(O)C2O)n1 (centres undefined)
inactive: endpoint: median survival time, dose: 8.75 mg/kg/injection, schedule: Q01DX005 (ip), vehicle: water 100 % of control | endpoint: median survival time, dose: 17.5 mg/kg/injection, schedule: Q01DX005 (ip), vehicle: water 96 % of control | endpoint: median survival time, dose: 35.0 mg/kg/injection, schedule: Q01DX005 (ip), vehicle: water 97 % of control | endpoint: median survival time, dose: 70.0 mg/kg/injection, schedule: Q01DX005 (ip), vehicle: water 97 % of control | endpoint: median survival time, dose: 140.0 mg/kg/injection, schedule: Q01DX005 (ip), vehicle: water 100 % of control

NC1CCCCC1N.Nc1c(N=Nc2ccc(-c3ccc(N=Nc4cc(S(=O)(=O)[O-])c5ccccc5c4N)cc3)cc2)cc(S(=O)(=O)[O-])c2ccccc12.[OH3+].[OH3+].[Pt+4]
inactive: endpoint: median survival time, dose: 3.12 mg/kg/injection, schedule: Q04DX003 (ip), vehicle: saline with Tween-80 108 % of control | endpoint: median survival time, dose: 6.25 mg/kg/injection, schedule: Q04DX003 (ip), vehicle: saline with Tween-80 100 % of control | endpoint: median survival time, dose: 12.5 mg/kg/injection, schedule: Q04DX003 (ip), vehicle: saline with Tween-80 102 % of control | endpoint: median survival time, dose: 25.0 mg/kg/injection, schedule: Q04DX003 (ip), vehicle: saline with Tween-80 98 % of control | endpoint: median survival time, dose: 50.0 mg/kg/injection, schedule: Q04DX003 (ip), vehicle: saline with Tween-80 106 % of control | endpoint: median survival time, dose: 100.0 mg/kg/injection, schedule: Q04DX003 (ip), vehicle: saline with Tween-80 97 % of control | endpoint: median survival time, dose: 200.0 mg/kg/injection, schedule: Q04DX003 (ip), vehicle: saline with Tween-80 100 % of control

COC(=O)NC1=Nc2ccccc2-c2ccccc2N1
inactive: [9] 101 % of control | [10] 96 % of control | [11] 96 % of control

O=C/C=C/C=C/C=C/c1ccccc1
inactive: endpoint: mean survival time, dose: 62.5 mg/kg/injection, schedule: Q01DX001 (ip), vehicle: distilled water + alcohol 93 % of control | endpoint: mean survival time, dose: 125.0 mg/kg/injection, schedule: Q01DX001 (ip), vehicle: distilled water + alcohol 96 % of control | endpoint: mean survival time, dose: 250.0 mg/kg/injection, schedule: Q01DX001 (ip), vehicle: distilled water + alcohol 92 % of control | endpoint: mean survival time, dose: 500.0 mg/kg/injection, schedule: Q01DX001 (ip), vehicle: distilled water + alcohol 90 % of control | endpoint: median survival time, dose: 50.0 mg/kg/injection, schedule: Q01DX009 (ip), vehicle: saline 98 % of control | endpoint: median survival time, dose: 100.0 mg/kg/injection, schedule: Q01DX009 (ip), vehicle: saline 106 % of control | endpoint: median survival time, dose: 200.0 mg/kg/injection, schedule: Q01DX009 (ip), vehicle: saline 100 % of control | endpoint: median survival time, dose: 400.0 mg/kg/injection, schedule: Q01DX009 (ip), vehicle: saline 101 % of control | endpoint: median survival time, dose: 800.0 mg/kg/injection, schedule: Q01DX009 (ip), vehicle: saline 100 % of control

O=C(O)O.O=C(O)O.O=C(O)O.[Co]
inactive: endpoint: mean survival time, dose: 100.0 mg/kg/injection, schedule: Q01DX001 (ip), vehicle: saline 102 % of control | [6] 97 % of control

CSc1ncc(Br)c(C(=O)O)n1
inactive: [9] 96 % of control | [10] 96 % of control | [11] 93 % of control
